The record followed here is patent US20180093956A1, “SUBSTITUTED PHTHALAZINES” (AbbVie Inc., priority 2015, published 2018).

Chain of SUV420H1 enzyme (Q4FZB7 whole entry): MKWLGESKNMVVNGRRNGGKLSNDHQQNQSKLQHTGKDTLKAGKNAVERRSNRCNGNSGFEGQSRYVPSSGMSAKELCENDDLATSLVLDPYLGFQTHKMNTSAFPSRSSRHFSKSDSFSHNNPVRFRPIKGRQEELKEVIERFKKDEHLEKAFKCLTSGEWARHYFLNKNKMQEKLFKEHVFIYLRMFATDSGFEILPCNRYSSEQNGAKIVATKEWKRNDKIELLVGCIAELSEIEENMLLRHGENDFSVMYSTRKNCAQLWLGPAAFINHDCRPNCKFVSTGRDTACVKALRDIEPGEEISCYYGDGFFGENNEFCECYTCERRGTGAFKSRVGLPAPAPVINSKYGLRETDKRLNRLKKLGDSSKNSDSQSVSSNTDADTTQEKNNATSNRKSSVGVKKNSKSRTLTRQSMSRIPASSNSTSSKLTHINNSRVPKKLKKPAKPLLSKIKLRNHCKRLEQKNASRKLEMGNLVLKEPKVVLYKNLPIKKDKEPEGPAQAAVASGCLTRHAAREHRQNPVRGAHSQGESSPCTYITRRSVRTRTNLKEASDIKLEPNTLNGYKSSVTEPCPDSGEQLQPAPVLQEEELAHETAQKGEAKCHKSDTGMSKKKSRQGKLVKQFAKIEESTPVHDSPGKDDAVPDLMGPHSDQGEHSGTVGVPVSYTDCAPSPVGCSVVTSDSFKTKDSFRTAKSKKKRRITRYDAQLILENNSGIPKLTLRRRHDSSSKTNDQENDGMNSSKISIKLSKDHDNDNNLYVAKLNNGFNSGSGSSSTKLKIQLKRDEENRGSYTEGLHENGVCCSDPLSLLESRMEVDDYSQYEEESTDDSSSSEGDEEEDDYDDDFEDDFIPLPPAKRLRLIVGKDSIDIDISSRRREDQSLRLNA

The test deals with SUV420H1 enzyme (Homo sapiens, UniProt Q4FZB7). The test is described as follows: TR-FRET SAH SUV420H1 enzyme inhibition assay. The following applies: Histone Peptide H4(8-30)me1 and SAM, TR-FRET detection of SAH, read-out: TR-FRET SAH_SUV420H1 IC50. In kind it is biochemical. The protocol:
Test compounds were dispensed by a Labcyte Echo in 384-well low volume assay plates with 3-fold serial dilutions from 50 μM to 0.00075 μM. 5 μL of SUV420H1 enzyme (Abbvie) at 90 nM was added to all wells except for the no enzyme control wells and incubated for 30 minutes at room temperature before 5 μL of Histone Peptide H4(8-30)me1 (Anaspec) at 5 μM and SAM at 4 μM was added to all wells. The plates were incubated in a humidified chamber overnight at room temp and then 10 μL of the detection reagent that contained RIPA buffer (50 mM Tris-HCl, pH 8.0, 150 mM sodium chloride, 1.0% Igepal CA-630 (NP-40), 0.5% sodium deoxycholate and 0.1% sodium dodecyl sulfate) (Sigma) with 2 nM of Terbium chelate anti S-adenosyl-L-homocysteine (SAH) (Abbvie) antibody and Oregon Green labeled SAH at 4 nM was added. The plates were further incubated for 4 hours at room temperature. The plates were read in a Perkin Elmer Envision using a TR-FRET protocol with Excitation set at 335 nm and Emission at 520 and 495 nm. To generate dose response curves the data is normalized to percent inhibition by setting the average of the plus and minus enzyme control wells to 0% and 100% inhibition respectively. The ICso values for the compounds are generated by fitting the normalized data with Accelrys Assay Explorer 3.3 to a sigmoidal curve model using […], Y=(100*x^n)/(K^n+x^n), where Y is the measured response, x is the compound concentration, n is the Hill Slope and K is the IC50 and the lower and higher asymptotes are constrained to 0 and 100 respectively.
For orientation: Time-resolved FRET reads energy transfer from a long-lived donor to a nearby acceptor.
On to `O=C(c1nnc(NC2CCCC2)c2cc(Cl)c(Cl)cc12)N1CCC(O)C1` (centres unmarked) [Example 48, [6,7-dichloro-4-(cyclopentylamino)phthalazin-1-yl](3-hydroxypyrrolidin-1-yl)methanone], for which the IC50 (as a rule, the concentration needed to halve the response being measured) was 4.16 µM.

Turning to `O=C(c1nnc(NC2CCCC2)c2cc(Cl)c(Cl)cc12)N1CCCC1` [Example 47, [6,7-dichloro-4-(cyclopentylamino)phthalazin-1-yl](pyrrolidin-1-yl)methanone], the IC50 stood at 3.78 µM. As for `Clc1cc2c(NC3CCCC3)nnc(N3CCCC3)c2cc1Cl` [Example 11, 6,7-dichloro-N-cyclopentyl-4-(pyrrolidin-1-yl)phthalazin-1-amine], the figure is > 50 µM. Take `CS(=O)(=O)CC(=O)N1CC=C(c2nnc(NC3CCCC3)c3cc(Cl)c(Cl)cc23)CC1` [Example 82, 1-{4-[6,7-dichloro-4-(cyclopentylamino)phthalazin-1-yl]-3,6-dihydropyridin-1(2H)-yl}-2-(methylsulfonyl)ethanone]: the IC50 amounted to 0.681 µM. On to `NC1CCN(c2ccc(-c3nnc(NC4CCCC4)c4cc(Cl)c(Cl)cc34)cn2)C1` (centres unmarked) [Example 33, 4-[6-(3-aminopyrrolidin-1-yl)pyridin-3-yl]-6,7-dichloro-N-cyclopentylphthalazin-1-amine], for which the IC50 was 1.24 µM.

As for `OCCNc1cc(-c2nnc(NC3CCCC3)c3cc(Cl)c(Cl)cc23)ccn1` [Example 39, 2-({4-[6,7-dichloro-4-(cyclopentylamino)phthalazin-1-yl]pyridin-2-yl}amino)ethanol], the concentration for half-maximal inhibition (IC50) worked out at 3.49 µM. As for `O=S1(=O)CCN(c2ccc(-c3nnc(NC4CCCC4)c4cc(Cl)c(Cl)cc34)cn2)CC1` [Example 41, 6,7-dichloro-N-cyclopentyl-4-[6-(1,1-dioxidothiomorpholin-4-yl)pyridin-3-yl]phthalazin-1-amine], the figure is 0.805 µM. As for `Clc1cc2c(NC3CCCC3)nnc(-c3ccccc3)c2cc1Cl` [Example 2, 6,7-dichloro-N-cyclopentyl-4-phenylphthalazin-1-amine], the figure is 28.9 µM; as for `CN1CCN(c2ccc(-c3nnc(NC4CCCC4)c4cc(Cl)c(Cl)cc34)cn2)CC1` [Example 21, 6,7-dichloro-N-cyclopentyl-4-[6-(4-methylpiperazin-1-yl)pyridin-3-yl]phthalazin-1-amine], 1.46 µM. As for `CN(C)c1cc(-c2nnc(NC3CCCC3)c3cc(Cl)c(Cl)cc23)ccn1` [Example 32, 6,7-dichloro-N-cyclopentyl-4-[2-(dimethylamino)pyridin-4-yl]phthalazin-1-amine], the figure is 11.2 µM; as for `Clc1cc2c(NC3CCCC3)nnc(-c3ccnc(N4CCOCC4)c3)c2cc1Cl` [Example 17, 6,7-dichloro-N-cyclopentyl-4-[2-(morpholin-4-yl)pyridin-4-yl]phthalazin-1-amine], 7.38 µM.
